Tested on: GUMC-403
Assay: viability at highest tested concentration (max response) relative to DMSO (% of DMSO control); higher = less cytotoxic
Conditions: library / dose series: MIPE library, 11-point 1:3 dilution, 48 h
Summary of the method: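 GUMC-403 papilloma cells, derived from a patient and expanded by conditional reprogramming, were dispensed at 700/well into 1536-well plates in 5 μL F + Y medium. A pin tool delivered 23 nL of each compound across an 11-point 1:3 dilution series for 48 h. CellTiter-Glo luminescence, read on a ViewLux, was normalised so that vehicle wells equalled 100% and empty wells 0%. Values report viability at the highest tested concentration relative to vehicle control.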

Compound | viability (top concentration 46.1 µM) | viability (top concentration 23 µM)
Clc1cc(Cl)cc(CNc2ncncc2-c2ccc3c(c2)OCO3)c1 | 99.6 | 
N[C@H](CSC(c1ccccc1)(c1ccccc1)c1ccccc1)C(=O)O | 103 | 
C[C@]\12CC[C@H](O)CC1=C/CC3C2CC[C@@]\4(C)C3C\C=C4[N]5C=NC6=C5C=CC=C6 (stereo partly drawn) | 108 | 
COc1cccc([C@@H](C)NCCCc2ccccc2Cl)c1 | 105 | 
O=C(O)/C=C/c1ccc(Cn2ccnc2)cc1 | 124 | 
Nc1ccccc1NC(=O)c1ccc(CNc2nccc(-c3cccnc3)n2)cc1 | 85.9 | 
CCc1nc(-c2cccc(C)c2)c(-c2ccnc(NC(=O)c3ccccc3)c2)s1 | 108 | 
CC(C)(C(=O)NCC(F)(F)C(F)(F)F)C(=O)N[C@@H]1C(=O)Nc2ccccc2-c2ccccc21 | 88.8 | 
CNCC(O)C(O)C(O)C(O)CO.O=C(O)c1ccc(-c2cc3cccnc3c(-c3ccc4nonc4c3)n2)cc1 | 117 | 
[O-]C(=O)C/1=N/C(=O)NC(=O)N1 |  | 90.2
Cc1cn[nH]c1 | 126 | 
COc1cc([C@H]2Oc3cc([C@H]4Oc5cc(O)cc(O)c5C(=O)[C@@H]4O)ccc3O[C@@H]2CO)ccc1O | 83.9 | 
C=C[C@H]1CN2CCC1C[C@@H]2C(O)c1ccnc2ccc(OC)cc12 (stereo partly drawn) | 101 | 
C[C@H](NC(=O)Cc1cc(F)cc(F)c1)C(=O)N[C@H](C(=O)OC(C)(C)C)c1ccccc1 | 79.4 | 
CCNC(=O)[C@H]1O[C@@H](n2cnc3c(N)nc(NCCc4ccc(CCC(=O)O)cc4)nc32)[C@H](O)[C@@H]1O | 112 | 
CN(C)CC[C@H](CSc1ccccc1)Nc1ccc([S+](=O)([O-])NC(=O)c2ccc(N3CCN(Cc4ccccc4-c4ccc(Cl)cc4)CC3)cc2)cc1[N+](=O)[O-] | 114 | 
NC(=O)c1noc([C@H](CCCC2CCCCC2)CC(=O)NO)n1 | 118 | 
CO[C@@H]1C(N(C)C(=O)c2ccccc2)C[C@H]2O[C@]1(C)n1c3ccccc3c3c4c(c5c6ccccc6n2c5c31)C(=O)NC4=O (stereo partly drawn) | 76.6 | 
CCCC1OC2C[C@H]3[C@@H]4CCC5=CC(=O)C=C[C@]5(C)[C@H]4C(O)C[C@]3(C)[C@]2(C(=O)CO)O1 (stereo partly drawn) | 121 | 

Compound | viability (top concentration 46.1 µM) | viability (top concentration 23 µM)
COCCCC/C(=N\OCCN)c1ccc(C(F)(F)F)cc1 | 90 | 
CCC(=O)NCC[C@@H]1CCc2ccc3c(c21)CCO3 | 122 | 
CC(=O)O.Cc1c(-c2ccc(O)cc2)n(Cc2ccc(OCCN3CCCCCC3)cc2)c2ccc(O)cc12 | 130 | 
O=C(NC[C@H](O)CO)c1ccncc1Nc1ccc(I)cc1F | 72.6 | 
CON(C)C(=O)N1\N=C(/S[C@]1(CCCN)C2=CC=CC=C2)C3=CC(=CC=C3F)F | 116 | 
CNC(=O)C1=CC=C(C)C(=C1)N2C(=C/C(=C(/Br)C2=O)OCC3=C(F)C=C(F)C=C3)\C | 109 | 
CC(C)(C)C(=O)Oc1ccc2c(c1)nc(NC(=O)c1cccc([N+](=O)[O-])c1)n2CCCO | 106 | 
CCNC(=O)Nc1ccc2ncc(Nc3ccc(C)cc3)nc2n1 | 108 | 
N=C(CCSCc1csc(N=C(N)N)n1)N[S+](N)(=O)[O-] | 124 | 
COc1cccc2c(NCc3ccccc3)nc(-n3c(N)nc4ccccc43)nc12 | 131 | 
CCc1cncnc1N1CCN(Cc2nc3cc(C(F)(F)F)ccc3[nH]2)CC1 | 84.5 | 
c1ccc2c(-c3cnn4cc(-c5ccc(N6CCNCC6)cc5)cnc34)ccnc2c1 | 2.71 | 
OC1CCC(CC1)N2\C=N/C3=C(C2=N)C(=C([N]3CC4=CC=CC=C4)C5=CC=CC=C5)C6=CC=CC=C6 (stereo not drawn) | 126 | 
Nc1nnc(-c2cccc(Cl)c2Cl)c(N)n1 | 82.5 | 
N[S+]([O-])(=O)C1=C(Cl)C=C2\N=C/N[S+]([O-])(=O)C2=C1 | 127 | 
COCC(=O)NC/C=C/c1ccc2ncnc(Nc3ccc(Oc4ccc(C)nc4)c(C)c3)c2c1 | 98.1 | 
COc1cc(N[S+](=O)([O-])c2ccc(N)cc2)nc(OC)n1 | 142 | 
C=CC(=O)Nc1cc(NC(=O)c2ccc(C)c(NC(=O)c3ccno3)c2)cc(C(F)(F)F)c1 | 106 | 
CCC(=O)N1CCN(CC1)C2=C(C=C(C=C2)N3C(=O)\C=C/C4=C3C5=CC(=CC=C5N=C4)C6=CN=C7C=CC=CC7=C6)C(F)(F)F | 73.8 | 
